Laboratory results from patent publication US20250162973A1, “METHODS OF SYNTHESIS AND USES OF AGRIMOL COMPOUNDS” (Versitech Limited, priority 2022, published 2025).
Where two headings read alike, the source gives them in different places.

Assays:
[1] = tested on: H460 cell line; experiment: MTT cell viability assay; type: cell-based, human; details: MTT method
Method: (§1) SUNE1 (nasopharyngeal carcinoma), AGS (gastric adenocarcinoma), HeLa (cervix adenocarcinoma), HepG2 (hepatocellular carcinoma), U-87 MG (human glioblastoma cell), U2OS (osteosarcoma), MCF-7 (breast adenocarcinoma), MDA-MB-231 (breast adenocarcinoma), HCT116 (colorectal carcinoma), SW480 (colorectal adenocarcinoma), NCI-H460 (large cell lung carcinoma), NCI-H1650 (adenocarcinoma lung carcinoma), HCC827 (adenocarcinoma lung carcinoma), A549 (lung carcinoma), and CCD-19Lu (human lung fibroblast normal cell) were all obtained from American Type Culture Collection (ATCC, Manassas, VA, USA). Minimum Essential Media (MEM, Gibco®, ThermoFisher Scientific), Dulbecco's Modified Eagle Medium (DMEM, Gibco®, ThermoFisher Scientific), and RPMI-1640 Medium (Gibco®, ThermoFisher Scientific) supplemented with 10% Fetal Bovine Serum (Gibco®, ThermoFisher Scientific), and 100 U/mL penicillin-streptomycin (Gibco™, ThermoFisher Scientific) were used for cell culture. Cells were placed into an incubator with 5% CO2 that temperature was set at 37° C. For subculturing cells, 0.05% Trypsin-EDTA (Gibco®) was used for detaching and a subcultivation ratio of 1:5 was used.
(§2) The cell viability assay was performed by a typical MTT assay. Briefly, 5*10^3 cells were seeded in the 96-well flat bottom plate and allowed to attach overnight. After drug treatment with a serial dilution from 100 μM for 48 h, 10 μL of MTT solution (5 mg/ml prepared in PBS, filtered) was added into each well and incubate for 4 h at 37° C. The formed formazan was then dissolved with SDS solution (10% SDS in 10 mM HCl) and followed the determination of absorbance at 590 nm by a microplate reader. The change in cell viability was then calculated for each drug concentration, then normalized to control. Dose response curves from each assay were fit to a Boltzmann sigmoidal function (GraphPad Prism8, version8.0.0). The cytotoxicity of AGB and its derivatives was determined by the calculation of IC50 value (half maximal inhibitory concentration) from fitted curves, which was the concentration of drug induced 50% cell viability.

[2] = tested on: HeLa cell line; experiment: MTT cell viability assay; type: cell-based, human; details: MTT method
Method: as §1, §2

[3] = tested on: A549; experiment: MTT cell viability assay; type: cell-based; details: Homo sapiens, MTT method, 48h, Table 6
Method: as §1, §2

[4] = tested on: MDA-MB-231 cell line; experiment: MTT cell viability assay; type: cell-based, human; details: MTT method, 48 h
Method: as §1, §2

[5] = tested on: AGS cell line; experiment: MTT cell viability assay; type: cell-based, human; details: MTT method, 48 h
Method: as §1, §2

[6] = tested on: human cancer cell lines (MDA-MB-231, MCF-7, HepG2, HeLa, AGS, HCT116, SW480, SUNE-1, H460, HCC827, H1650, A549); experiment: MTT cell viability assay, panel of human cancer cell lines; type: cell-based; details: four different cancer cell lines, 48-h treatment
Method: as §1, §2

[7] = tested on: Golgi complex in NCI-H460 cells; experiment: Golgi integrity, anti-GM130 immunostaining; type: cell-based, human
Text: Based on the ProTargetMiner analysis results, the mitochondrial function and ER stress were studied. […] In cells, proteins were initially synthesized in ER and transport to Golgi apparatus for processing. When a drug blocked ER to Golgi trafficking, the Golgi apparatus would suffer from a dramatic redistribution and disruption. This blocking causes accumulation of unmatured proteins in the ER, thereby disrupting the structure of Golgi apparatus and inducing ER stress. The Golgi disrupting agent, brefeldin A (BFA) was used as a positive control drug. […] The effects of BFA and AGB on the integrity of the Golgi complex were assessed by immunostaining using an anti-GM130 antibody, one of Golgi markers.

[8] = Homo sapiens, NCI-H460, 48h, Table 6, read-out: IC50 H460
[9] = Homo sapiens, HeLa, 48h, Table 6, read-out: IC50 HeLa
[10] = 48 h, read-out: IC50 HeLa cell line
[11] = 48 h, read-out: IC50 H460 cell line

Row | Molecule | IC50 [1, 8] | IC50 [2, 9] | IC50 [3] | further results
1 | CCCC(=O)c1c(O)c(Cc2c(O)c(C)c(O)c(Cc3c(O)c(C)c(OC)c(C(=O)CCC)c3O)c2O)c(O)c(C)c1OC | 3.78 µM |  |  | 
2 | CCCC(=O)c1c(O)c(Cc2c(O)c(C(=O)OC)c(O)c(C(=O)C(C)C)c2O)c(O)c(C)c1OC | 1.14 µM |  |  | 
3 | CCC(=O)c1c(O)c(Cc2c(O)c(Cc3c(O)c(C)c(OC)c(C(=O)CC)c3O)c(O)c(C(=O)CCC(O)OC)c2O)c(O)c(C)c1OC (stereo not drawn) | 4.67 µM | 3.56 µM | 41.9 µM | 
4 | Agrimol L [AGL] |  |  |  | IC50 [4]: > 50 µM; IC50 [5]: > 50 µM; IC50 [2, 10]: 35.1 µM; IC50 [1, 11]: > 50 µM; cytotoxicity compared with AGB [6]: significantly lower cytotoxicity than AGB
5 | CCC(C)C(=O)c1c(O)c(Cc2cc(C)ccc2O)c(O)c(C(=O)OC)c1O (stereo not drawn) | 2.99 µM | 3.96 µM | 20.5 µM | 
6 | C[C@H]1CCC/C=C/[C@@H]2C[C@H](O)C[C@H]2[C@H](O)/C=C/C(=O)O1 [BFA, brefeldin A] |  |  |  | GM130 distribution (Golgi integrity) [7]: redistribution of GM130
7 | CCCC(=O)c1c(O)c(Cc2c(O)c(Cc3c(O)c(C)c(OC)c(C(=O)CCC)c3O)c(O)c(C(=O)C3CCCCC3)c2O)c(O)c(C)c1OC | 2.3 µM | 1.44 µM |  | 
8 | CCCC(=O)c1c(O)c(Cc2c(O)c(C(=O)c3ccccc3)c(O)c(C(=O)c3ccccc3)c2O)c(O)c(C)c1OC | 3.13 µM | 3.24 µM | 28.4 µM | 
9 | Agrimol H [AGH] |  |  |  | IC50 [4]: 2.84 µM; IC50 [5]: 5.43 µM; IC50 [2, 10]: 1.55 µM; IC50 [1, 11]: 2.66 µM
10 | CCC(C)C(=O)c1c(O)c(Cc2ccccc2O)c(Cl)c(C(=O)OC)c1O (stereo not drawn) | 2.05 µM |  |  | 
11 | CCCC(=O)c1c(O)c(Cc2c(O)c(Cc3cc(OC)c(OC)c(OC)c3)c(O)c(C(=O)C(C)CC)c2O)c(O)c(C)c1OC (stereo not drawn) | 2.3 µM | 2.06 µM | 8.53 µM | 
12 | CCCC(=O)c1c(O)c(Cc2c(O)c(C)c(OC)c(C(=O)CCC)c2O)c(O)c(Cc2c(O)c(C)c(OC)c(C(=O)CCC)c2O)c1O [AGC, Agrimol C] |  |  |  | IC50 [4]: 2.44 µM; IC50 [5]: 8.01 µM; IC50 [2, 10]: 1.52 µM; IC50 [1, 11]: 1.76 µM
13 | CCCC(=O)c1c(O)cc(O)c(C)c1OC [AGS] |  |  |  | IC50 ([4]; Homo sapiens, MDA-MB-231): > 50 µM; IC50 ([5]; Homo sapiens, AGS): > 50 µM; IC50 ([2]; Homo sapiens, HeLa, 48 h, read-out: IC50 HeLa cell line): > 50 µM; IC50 ([1]; Homo sapiens, NCI-H460, 48 h, read-out: IC50 H460 cell line): > 50 µM; cytotoxicity compared with AGB [6]: significantly lower cytotoxicity than AGB
14 | CCCC(=O)c1c(O)c(Cc2c(O)c(Cc3c(O)c(C)c(OC)c(C(=O)CCC)c3O)c(O)c(C(=O)c3ccccc3)c2O)c(O)c(C)c1OC | 2.75 µM | 1.23 µM | 19.3 µM | 
